Activity calls are given as the source filed them. The rule behind the calls is not given here.
Tested on: CCRIS mutagenicity, Ames/micronucleus/aberration tests
Experiment: CCRIS mutagenicity studies

Q: Which results are given for C=CC#N?
A: mutagenic call (End Point: IN VITRO CHROMOSOMAL ABERRATIONS, Test System: CHL CELLS, Metabolic Activation: RAT, LIVER, S-9, SODIUM PHENOBARBITAL AND 5,6-BENZOFLAVONE): active; positive (structural changes); mutagenic call (End Point: IN VIVO CHROMOSOMAL ABERRATIONS, Test System: BONE MARROW CELLS, Species: MOUSE, Strain/Sex: C57B1/6/MALE, Route: IP INJECTION (ONCE)): inactive; negative; mutagenic call (Test System: AMES SALMONELLA TYPHIMURIUM, Strain/Indicator: TA97, Metabolic Activation: HAMSTER LIVER S-9, AROCLOR 1254 (10%), Method: PREINCUBATION): inactive; negative; mutagenic call (Test System: AMES SALMONELLA TYPHIMURIUM, Strain/Indicator: TA97, Metabolic Activation: NONE, Method: PREINCUBATION): inactive; negative; mutagenic call (Test System: AMES SALMONELLA TYPHIMURIUM, Strain/Indicator: TA97, Metabolic Activation: NONE, Method: STANDARD PLATE): inactive; negative; mutagenic call (Test System: AMES SALMONELLA TYPHIMURIUM, Strain/Indicator: TA97, Metabolic Activation: RAT LIVER S-9, AROCLOR 1254 (10%), Method: PREINCUBATION): inactive; negative; mutagenic call (Test System: AMES SALMONELLA TYPHIMURIUM, Strain/Indicator: TA97, Metabolic Activation: RAT, LIVER, S-9, AROCLOR 1254, Method: STANDARD PLATE): inactive; negative; mutagenic call (Test System: AMES SALMONELLA TYPHIMURIUM, Strain/Indicator: TA97, Metabolic Activation: S-9, Method: STANDARD PLATE): inactive; negative; mutagenic call (Test System: AMES SALMONELLA TYPHIMURIUM, Strain/Indicator: TA98, Metabolic Activation: HAMSTER LIVER S-9, AROCLOR 1254 (10%), Method: PREINCUBATION): inactive; negative; mutagenic call (Test System: AMES SALMONELLA TYPHIMURIUM, Strain/Indicator: TA98, Metabolic Activation: NONE, Method: PREINCUBATION): inactive; negative; mutagenic call (Test System: AMES SALMONELLA TYPHIMURIUM, Strain/Indicator: TA98, Metabolic Activation: NONE, Method: STANDARD PLATE): inactive; negative; mutagenic call (Test System: AMES SALMONELLA TYPHIMURIUM; Strain/Indicator: TA98; Metabolic Activation: RAT LIVER S-9, AROCLOR 1254 910%), Method: PREINCUBATION): inactive; negative; mutagenic call (Test System: AMES SALMONELLA TYPHIMURIUM, Strain/Indicator: TA98, Metabolic Activation: RAT, LIVER, S-9, AROCLOR 1254, Method: STANDARD PLATE): inactive; negative; mutagenic call (Test System: AMES SALMONELLA TYPHIMURIUM, Strain/Indicator: TA98, Metabolic Activation: S-9, Method: STANDARD PLATE): inactive; negative; mutagenic call (Test System: AMES SALMONELLA TYPHIMURIUM, Strain/Indicator: TA100, Metabolic Activation: HAMSTER LIVER S-9, AROCLOR 1254 (5%), Method: PREINCUBATION): inactive; negative; mutagenic call (Test System: AMES SALMONELLA TYPHIMURIUM, Strain/Indicator: TA100, Metabolic Activation: HAMSTER LIVER S-9, AROCLOR 1254 (5 OR 10%), Method: PREINCUBATION): inactive; negative; mutagenic call (Test System: AMES SALMONELLA TYPHIMURIUM, Strain/Indicator: TA100, Metabolic Activation: HAMSTER LIVER S-9, AROCLOR 1254 (10% OR 30%), Method: PREINCUBATION): active; positive; mutagenic call (Test System: AMES SALMONELLA TYPHIMURIUM, Strain/Indicator: TA100, Metabolic Activation: HAMSTER LIVER S-9, AROCLOR 1254 (10%), Method: PREINCUBATION): active; positive; mutagenic call (Test System: AMES SALMONELLA TYPHIMURIUM, Strain/Indicator: TA100, Metabolic Activation: HAMSTER LIVER S-9, AROCLOR 1254 (30%), Method: PREINCUBATION): active; positive; mutagenic call (Test System: AMES SALMONELLA TYPHIMURIUM, Strain/Indicator: TA100, Metabolic Activation: HAMSTER, LIVER, S-9, AROCLOR 1254 (5, 10, 20%), Method: PREINCUBATION): active; positive; mutagenic call (Test System: AMES SALMONELLA TYPHIMURIUM, Strain/Indicator: TA100, Metabolic Activation: HAMSTER, LIVER, S-9, AROCLOR 1254 (20%), Method: PREINCUBATION): active; positive; mutagenic call (Test System: AMES SALMONELLA TYPHIMURIUM, Strain/Indicator: TA100, Metabolic Activation: NONE, Method: PREINCUBATION): inactive; negative; mutagenic call (Test System: AMES SALMONELLA TYPHIMURIUM, Strain/Indicator: TA100, Metabolic Activation: NONE, Method: STANDARD PLATE): inactive; negative; mutagenic call (Test System: AMES SALMONELLA TYPHIMURIUM, Strain/Indicator: TA100, Metabolic Activation: RAT LIVER S-9, AROCLOR 1254 (5, 10, OR 30%), Method: PREINCUBATION): inactive; negative; mutagenic call (Test System: AMES SALMONELLA TYPHIMURIUM, Strain/Indicator: TA100, Metabolic Activation: RAT LIVER S-9, AROCLOR 1254 (5/%, 10% OR 30%), Method: PREINCUBATION): inactive; negative; mutagenic call (Test System: AMES SALMONELLA TYPHIMURIUM, Strain/Indicator: TA100, Metabolic Activation: RAT LIVER S-9, AROCLOR 1254 (10%), Method: PREINCUBATION): inactive; negative; mutagenic call (Test System: AMES SALMONELLA TYPHIMURIUM, Strain/Indicator: TA100, Metabolic Activation: RAT, LIVER, S-9, AROCLOR 1254, Method: FLUCTUATION): active; positive; mutagenic call (Test System: AMES SALMONELLA TYPHIMURIUM, Strain/Indicator: TA100, Metabolic Activation: RAT, LIVER, S-9, AROCLOR 1254, Method: STANDARD PLATE): inactive; negative; mutagenic call (Test System: AMES SALMONELLA TYPHIMURIUM, Strain/Indicator: TA100, Metabolic Activation: S-9, Method: STANDARD PLATE): inactive; negative; mutagenic call (Test System: AMES SALMONELLA TYPHIMURIUM, Strain/Indicator: TA102, Metabolic Activation: NONE, Method: STANDARD PLATE): inactive; negative; mutagenic call (Test System: AMES SALMONELLA TYPHIMURIUM, Strain/Indicator: TA102, Metabolic Activation: S-9, Method: STANDARD PLATE): inactive; negative; mutagenic call (Test System: AMES SALMONELLA TYPHIMURIUM, Strain/Indicator: TA1530, Metabolic Activation: RAT, LIVER, S-9, 3-METHYLCHOLANTHRENE OR PCB OR PHENOBARBITAL, Method: FLUCTUATION): active; positive; mutagenic call (Test System: AMES SALMONELLA TYPHIMURIUM, Strain/Indicator: TA1530, Metabolic Activation: RAT, LIVER, S-9, PCB OR PHENOBARBITAL, Method: DESICCATOR): active; positive

Source: PubChem BioAssay AID1259407 (Chemical Carcinogenesis Research Information System (CCRIS), 2018)
